Measurements taken from publication PMC9521027 (ACS Omega, 2022).

Molecular target: T1, URAT1 K393H mutant (Homo sapiens, UniProt Q96S37, K393H)
T1 sequence (Q96S37 1-553 K393H): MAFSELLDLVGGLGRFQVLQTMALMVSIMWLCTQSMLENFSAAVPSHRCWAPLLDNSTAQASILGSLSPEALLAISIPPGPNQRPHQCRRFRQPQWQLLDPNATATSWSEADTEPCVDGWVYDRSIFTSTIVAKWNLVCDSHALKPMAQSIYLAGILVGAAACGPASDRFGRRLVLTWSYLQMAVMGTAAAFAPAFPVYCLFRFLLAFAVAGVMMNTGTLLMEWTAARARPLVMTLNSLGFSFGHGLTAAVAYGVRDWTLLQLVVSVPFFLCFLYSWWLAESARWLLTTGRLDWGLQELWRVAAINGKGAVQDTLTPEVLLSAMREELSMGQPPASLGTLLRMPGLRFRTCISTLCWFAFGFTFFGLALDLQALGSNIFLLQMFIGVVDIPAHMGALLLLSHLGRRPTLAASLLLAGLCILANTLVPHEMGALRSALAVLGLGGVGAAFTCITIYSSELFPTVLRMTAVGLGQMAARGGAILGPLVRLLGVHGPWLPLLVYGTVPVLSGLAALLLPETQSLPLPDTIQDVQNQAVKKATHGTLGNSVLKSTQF
Assay: Competitive inhibition test of unlabeled uric acid on 14C-uric acid uptake
Format: cell-based

- IC50: 121 ± 5.98 µM
SMILES: O=c1[nH]c(=O)c2[nH]c(=O)[nH]c2[nH]1 [uric acid]
